Two molecules from patent US12458597B2, “Carotenoid compositions and uses thereof” (L.E.A.F. HOLDINGS GROUP LLC, priority 2018, dated 2025) can be followed below.

For data set [1], the system named is mouse CLP sepsis model. Kind of data set: CLP sepsis survival Study 1 (TP-936). It is filed as in vivo, C57BL/6 mice. Particulars: CLP mice treated with saline and imipenem (control group); over 5 days. From the text: Male and/or female C57BL/6 mice ordered from Envigo Laboratories or the Jackson Lab (Bar Harbor, Maine) were acclimated to housing conditions and handled in accordance with Animal Use Protocol (AUP) number TP-05. The animals were acclimated for approximately 1 week prior to study start. Only animals deemed healthy were included in this study. Animals were fed irradiated Teklad Global Rodent Diet 2918 and water ad libitum. Mice were group housed 5/cage in static cages with irradiated Teklad ⅛″ corn cob bedding 7902 inside bioBubble® Clean Rooms that provide H.E.P. A filtered air into the bubble environment at 100 complete air changes per hour. The environment was controlled to a temperature range of 74°±5° F. and a humidity range of 30-70%. Treatment groups were identified by cage card. Individual mice were identified by indelible marker on the base of the tail. All procedures carried out in this experiment were conducted in compliance with the laws, regulations, and guidelines of the National Institutes of Health and with the approval of the TransPharm Animal Care and Use Committee.
On Day −1, male and/or female mice were anesthetized through use of isoflurane and brought to a surgical plane. […]
Animals were monitored continually post-surgery, at least once every 2-3 minutes for approximately 30 minutes, until the animals had recovered and were able to move about on their own. […]

A short description of data set [2]: Liposomal CTC and MTC PK in mice, plasma STC by HPLC. It is filed as in vivo. The note with it: mouse, single dose, slow intravenous bolus.
Experimental: Sample mixtures were well mixed by vortexing. […] Samples were vortexed and then centrifuged at 10000 RPM for 10 min at room temperature. 200 μL of supernatant was removed from each sample without disturbing pellet and analyzed by HPLC. If the amount of plasma permitted, this analysis was duplicated.
The concentration of STC in the plasma samples was quantified by standard curve constructed by analyzing plasma samples containing known amount of STC. PK profiles were analyzed.
Data set [3] in a line: Maximum solubility of trans-crocetin sodium in aqueous media. It is filed as physicochemical. The note with it: 5% dextrose (aqueous medium), saline or isotonic; in 5% dextrose. As for the experimental part:
The ethanolic lipid solution containing HSPC, cholesterol, PEG-DSPE, with/without PGPC was added into the aqueous solution using a pipet. During this step the solution was well stirred using a magnetic stirrer. The mixing was performed at an elevated temperature (63° C.-72° C.) to ensure that the lipids are in the liquid crystalline state (as opposed to the gel state they attain at temperatures below the lipid transition temperature (Tm=51° C.-54° C.). As a result, the lipids are hydrated and formed multiple bilayer (multilamellar) vesicles (MLV) containing trans-crocetin sodium in the aqueous core. The MLVs were then downsized by extrusion as described previously.
The ethanolic lipid solution containing HSPC, cholesterol, PEG-DSPE, with/without PGPC and the trans-crocetin sodium aqueous solution were separately transferred to syringes. Two solutions were injected into a microfluidic channel and mixed while flowing through it with Precision NanoSystems' NanoAssemblr® device. The mixing was performed at an elevated temperature (63° C.-72° C.) to ensure that the lipids were in a liquid crystalline state (as opposed to the gel state that they attain at temperatures below the lipid transition temperature (Tm=51° C.-54° C.). The liposome size can be controlled by varying the ratio between lipid solution and aqueous solution, as well as the mixing flow rate.

[4] abbreviates: Balb/c, iv, plasma over 24 hour.

Structures are written as SMILES.

In data set [1], `C[C@@H](O)[C@H]1C(=O)N2C(C(=O)O)=C(SCCN=CN)C[C@H]12` [imipenem] registered a mortality of 50%.

In data set [2] (setting [4]), `CC(/C=C/C=C(\C)C(=O)O)=C\C=C\C=C(C)\C=C\C=C(/C)C(=O)O` [STC free drug, sodium trans-crocetinate] showed an area under the curve (AUC) of 210 µg·h/mL and a half-life of 21 min. For the same molecule, the highest level in data set [2] (Balb/c mice) (Cmax) was 360 µg/mL. For the same molecule, the solubility in data set [3] was 700 µg/mL.
